For this assay, the target named is T1, human FSH receptor (Homo sapiens, UniProt P23945).
T1 construct: expressed in transfected cells; host or cells: CHO cells (hFSHR clone 16)
T1 sequence (P23945 18-695): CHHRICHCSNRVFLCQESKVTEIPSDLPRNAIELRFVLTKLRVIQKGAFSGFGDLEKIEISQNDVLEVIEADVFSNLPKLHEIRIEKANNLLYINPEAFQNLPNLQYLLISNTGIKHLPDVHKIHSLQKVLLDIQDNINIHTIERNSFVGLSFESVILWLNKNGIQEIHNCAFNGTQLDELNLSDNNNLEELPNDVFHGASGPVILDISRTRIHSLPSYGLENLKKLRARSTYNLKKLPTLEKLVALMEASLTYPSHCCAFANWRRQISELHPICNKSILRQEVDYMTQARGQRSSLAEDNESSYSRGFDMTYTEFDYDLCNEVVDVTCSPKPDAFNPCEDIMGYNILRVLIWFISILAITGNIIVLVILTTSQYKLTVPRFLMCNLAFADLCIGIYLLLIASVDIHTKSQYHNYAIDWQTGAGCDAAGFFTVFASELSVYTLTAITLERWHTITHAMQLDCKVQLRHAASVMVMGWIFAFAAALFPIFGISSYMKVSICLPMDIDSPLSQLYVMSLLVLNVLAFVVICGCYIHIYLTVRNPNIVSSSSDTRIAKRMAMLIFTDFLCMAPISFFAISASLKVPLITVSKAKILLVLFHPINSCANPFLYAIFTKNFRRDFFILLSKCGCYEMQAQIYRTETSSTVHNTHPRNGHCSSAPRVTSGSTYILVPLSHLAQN
The assay is described as follows: HTRF assay for measuring cAMP in cells, FSH-antagonistic effect (in the presence of hFSH). The format is cell-based. The settings on record: hFSHR clone 16 cells (CHO cells stably transfected with the human FSH receptor), in the presence of 1e-9 mol/l hFSH, 37° C. for 2 h.
Description: […]

Turning to `COc1cc(-c2cc(C(=O)NC(CO)Cc3c[nH]c4c(C)cccc34)c3ccccc3n2)cc(OC)c1OC` (racemic) [Example 10, N-[(R,S)-1-(Hydroxymethyl)-2-(7-methyl-1H-indol-3-yl)ethyl]-2-(3,4,5-trimethoxyphenyl)quinoline-4-carboxamide], the IC50 was 1000 nM.

As for `COc1ccc2cc(-c3cc(C(=O)N[C@@H](CO)Cc4c[nH]c5ccccc45)c4ccccc4n3)ccc2c1` [Example 97, 2-(6-Methoxy-naphthalen-2-yl)quinoline-4-carboxylic acid [(R)-1-hydroxymethyl-2-(1H-indol-3-yl)ethyl]amide], the IC50 is 4000 nM.

In the case of `CC(C)c1cccc(-c2ccccc2C(=O)N[C@@H](CO)Cc2c[nH]c3ccccc23)c1` [Example 86, N-[(R)-1-(Hydroxymethyl)-2-(1H-indol-3-yl)ethyl]-3′-(1-methylethyl)[1,1′-biphenyl]-2-carboxamide], the IC50 was determined as 8000 nM.

With `COc1ccc(-c2cc(F)c(F)c(F)c2)c(C(=O)N[C@@H](CO)Cc2c[nH]c3ccccc23)c1` [Example 88, 3′,4′, 5′-Trifluoro-N-[(R)-1-(hydroxymethyl)-2-(1H-indol-3-yl)ethyl]-4-methoxy[1,1′-biphenyl]-2-carboxamide], the IC50 turned out to be 10000 nM.

Turning to `COc1ccc2nc(-c3ccc(OC)c(F)c3)nc(C(=O)N[C@@H](CO)Cc3c[nH]c4ccccc34)c2c1` [Example 368, 2-(3-Fluoro-4-methoxyphenyl)-6-methoxyquinazoline-4-carboxylic acid [(R)-2-hydroxy-1-(1H-indol-3-ylmethyl)ethyl]amide], the IC50 was found to be 2500 nM.

For the compound `COc1cc(-c2cc(C(=O)NC(CO)Cc3c[nH]c4ccc(Br)cc34)c3ccccc3n2)cc(OC)c1OC` (racemic) [Example 1, N-[(R,S)-2-(5-Bromo-1H-indol-3-yl)-1-(hydroxymethyl)ethyl]-2-(3,4,5-trimethoxyphenyl)quinoline-4-carboxamide], the IC50 is 7000 nM.

As for `COc1ccc2nc(-c3ccc(OC)c(OC)c3OC)cc(C(=O)N[C@@H](CO)Cc3c[nH]c4ccccc34)c2c1` [Example 16, N-[(R)-1-(Hydroxymethyl)-2-(1H-indol-3-yl)ethyl]-6-methoxy-2-(2,3,4-trimethoxyphenyl)quinoline-4-carboxamide], the IC50 worked out at 4000 nM.

For `O=C(N[C@@H](CO)Cc1c[nH]c2ccccc12)c1cc(-c2ccc3c(c2)CCO3)nc2ccccc12` [Example 36, 2-(2,3-Dihydrobenzofuran-5-yl)-N-[(R)-1-(hydroxymethyl)-2-(1H-indol-3-yl)ethyl]quinoline-4-carboxamide], the IC50 was 6000 nM.

For `COc1ccc2nc(CCc3ccc(OC)c(OC)c3)cc(C(=O)N[C@@H](CO)Cc3c[nH]c4ccccc34)c2c1` [Example 96, 2-[2-(3,4-dimethoxyphenyl)ethyl]-N-[(R)-1-(hydroxymethyl)-2-(1H-indol-3-yl)ethyl]-6-methoxyquinoline-4-carboxamide], the half-maximal inhibitory concentration (IC50) was determined as 7000 nM.

With `COc1cc(-c2cc(C#CCO)cc(C(=O)N[C@@H](CO)Cc3c[nH]c4ccccc34)c2)cc(OC)c1OC` [Example 379, 5-(3-Hydroxyprop-1-ynyl)-3′,4′,5′-trimethoxybiphenyl-3-carboxylic acid [(R)-1-hydroxy-methyl-2-(1H-indol-3-yl)ethyl]amide], the IC50 came to 4500 nM.

For `COc1ccc(-c2cc(CCCO)cc(C(=O)N[C@@H](CO)Cc3c[nH]c4ccccc34)c2)cc1OC` [Example 396, 5-(3-Hydroxypropyl)-3′,4′-dimethoxybiphenyl-3-carboxylic acid [(R)-1-hydroxymethyl-2-(1H-indol-3-yl)ethyl]amide], the IC50 stood at 3500 nM.

On to `COc1cc(-c2cc(C(=O)NC(CO)Cc3c[nH]c4ccc(OCc5ccccc5)cc34)c3ccccc3n2)cc(OC)c1OC` (racemic) [Example 9, N-[(R,S)-1-(Hydroxymethyl)-2-[5-(phenylmethoxy)-1H-indol-3-yl]ethyl]-2-(3,4,5-trimethoxyphenyl)quinoline-4-carboxamide], for which the IC50 is 200 nM.

Consider `CCOc1ccc(-c2cnc(OC)nc2)cc1C(=O)N[C@@H](CO)Cc1c[nH]c2ccccc12` [Example 130, 2-Ethoxy-N-[(R)-1-hydroxymethyl-2-(1H-indol-3-yl)ethyl]-5-(2-methoxypyrimidin-5-yl)benzamide], for which the IC50 turned out to be 4000 nM.

Turning to `COc1ccc2nc(-c3cc(OC)c(OC)c(OC)c3)cc(C(=O)N[C@@H](CO)Cc3cn(C)c4ccccc34)c2c1` [Example 22, N-[(R)-1-(Hydroxymethyl)-2-(1-methyl-1H-indol-3-yl)ethyl]-6-methoxy-2-(3,4,5-trimethoxyphenyl)quinoline-4-carboxamide], the IC50 stood at 300 nM.

For `CCOc1ccc(-c2ccc(C)cc2)cc1C(=O)N[C@@H](CO)Cc1c[nH]c2ccccc12` [Example 162, 4-Ethoxy-4′-methylbiphenyl-3-carboxylic acid [(R)-1-hydroxy-methyl-2-(1H-indol-3-yl)ethyl]amide], the concentration for half-maximal inhibition (IC50) is 1500 nM.

Regarding `COc1cc(-c2cc(C(=O)N[C@@H](CO)Cc3c[nH]c4ccccc34)c3cc(F)ccc3n2)cc(OC)c1OC` [Example 17, 6-Fluoro-N-[(R)-1-(hydroxymethyl)-2-(1H-indol-3-yl)ethyl]-2-(3,4,5-trimethoxyphenyl)quinoline-4-carboxamide], the IC50 was 400 nM.

Regarding `COCCCc1ccc2nc(-c3cc(OC)c(OC)c(OC)c3)cc(C(=O)N[C@@H](CO)Cc3c[nH]c4ccccc34)c2c1` [Example 392, 6-(3-Methoxypropyl)-2-(3,4,5-trimethoxyphenyl) quinoline-4-carboxylic acid [(R)-1-hydroxy-methyl-2-(1H-indol-3-yl)ethyl]amide], the IC50 was determined as 1500 nM.

As for `COc1ccc(OC)c(-c2cccc(C(=O)N[C@@H](CO)Cc3c[nH]c4ccccc34)c2)c1` [Example 87, N-[(R)-1-(Hydroxymethyl)-2-(1H-indol-3-yl)ethyl]-2′,5′-dimethoxy-[1,1′-biphenyl]-3-carboxamide], the IC50 was found to be 10000 nM.

As for `COc1ccc2nc(/C=C/c3ccc(OC)c(OC)c3)cc(C(=O)N[C@@H](CO)Cc3c[nH]c4ccccc34)c2c1` [Example 38, 2-[(E)-2-(3,4-Dimethoxyphenyl)ethenyl]-N-[(R)-1-(hydroxymethyl)-2-(1H-indol-3-yl)ethyl]-6-methoxyquinoline-4-carboxamide], the IC50 turned out to be 900 nM.

`CCCCCCn1cc(C[C@H](CO)NC(=O)c2cc(-c3cc(OC)c(OC)c(OC)c3)nc3ccc(OC)cc23)c2ccccc21` [Example 345, N-[(R)-1-(Hydroxymethyl)-2-(1-nhexyl-1H-indol-3-yl)ethyl]-6-methoxy-2-(3,4,5-trimethoxyphenyl)quinoline-4-carboxamide]: the IC50 is 1000 nM.

With `COc1ccc2nc(-c3cc4c(F)cccc4o3)cc(C(=O)N[C@@H](CO)Cc3c[nH]c4ccccc34)c2c1` [Example 120, 2-(4-Fluorobenzofuran-2-yl)-N-[(R)-1-(hydroxymethyl)-2-(1H-indol-3-yl)ethyl]-6-methoxyquinoline-4-carboxamide], the IC50 came to 1500 nM.

`CCOc1ccc(-c2cccc(-c3ccccc3)c2)cc1C(=O)NC(CO)Cc1c[nH]c2ccccc12` (stereo not shown) [Example 430, 4-Ethoxy-[1,1′; 3′,1″]terphenyl-3-carboxylic acid [1-hydroxymethyl-2-(1H-indol-3-yl)ethyl]amide]: the IC50 stood at 400 nM.

What is called IC50 is the concentration needed to halve the response being measured.

Source of the values: US20070060573A1, “Acyltryptophanols” (priority 2005, published 2007).
